From PubChem BioAssay AID2060894 (Molecular Pharmacology Branch, DTP, NCI, 2025)

System: K12877-001-R-J1-PDC complex spheroid viability
Assay: Anticancer human tumor K12877-001-R-J1-PDC patient-derived lung adenocarcinoma cell line growth inhibition [RAS]
Conditions: for IC50: curve of first compound; for viability, T/C: stronger effect = lower value
Outline: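 Agents were tested in combination matrices in half-log decrements from a top concentration at or near clinical Cmax (10 microM if undetermined). Targets were multi-cell spheroids of tumour lines plus HUVEC and MSC stromal cells.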

[1] = second compound 0.000949 µM, first compound 0.0316 µM
[2] = second compound 0.000949 µM, first compound 0.1 µM
[3] = second compound 0.000949 µM, first compound 0.316 µM
[4] = second compound 0.000949 µM, first compound 1 µM
[5] = second compound 0.003 µM, first compound 0.0316 µM
[6] = second compound 0.003 µM, first compound 0.1 µM
[7] = second compound 0.003 µM, first compound 0.316 µM
[8] = second compound 0.003 µM, first compound 1 µM
[9] = second compound 0.00949 µM, first compound 0.0316 µM
[10] = second compound 0.00949 µM, first compound 0.1 µM
[11] = second compound 0.00949 µM, first compound 0.316 µM
[12] = second compound 0.00949 µM, first compound 1 µM
[13] = second compound 0.03 µM, first compound 0.0316 µM
[14] = second compound 0.03 µM, first compound 0.1 µM
[15] = second compound 0.03 µM, first compound 0.316 µM
[16] = second compound 0.03 µM, first compound 1 µM
[17] = second compound 0.0949 µM, first compound 0.0316 µM
[18] = second compound 0.0949 µM, first compound 0.1 µM
[19] = second compound 0.0949 µM, first compound 0.316 µM
[20] = second compound 0.0949 µM, first compound 1 µM
[21] = second compound 0.3 µM, first compound 0.0316 µM
[22] = second compound 0.3 µM, first compound 0.1 µM
[23] = second compound 0.3 µM, first compound 0.316 µM
[24] = second compound 0.3 µM, first compound 1 µM
[25] = second compound 0.000949 µM, first compound 3.16 µM
[26] = second compound 0.000949 µM, first compound 10 µM
[27] = second compound 0.003 µM, first compound 3.16 µM
[28] = second compound 0.003 µM, first compound 10 µM
[29] = second compound 0.00949 µM, first compound 3.16 µM
[30] = second compound 0.00949 µM, first compound 10 µM
[31] = second compound 0.03 µM, first compound 3.16 µM
[32] = second compound 0.03 µM, first compound 10 µM
[33] = second compound 0.0949 µM, first compound 3.16 µM
[34] = second compound 0.0949 µM, first compound 10 µM
[35] = second compound 0.3 µM, first compound 3.16 µM
[36] = second compound 0.3 µM, first compound 10 µM
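Further: spheroids exposed to agents for one week before readout.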
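Wherever viability, T/C is given: tumour cells co-cultured with HUVEC and mesenchymal stem cells in spheroids.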

Compound `C=CC(=O)N1CCN(c2nc(OCC3CCCN3C)nc3c(F)c(-c4nc(N)cc(C)c4C(F)(F)F)c(Cl)cc23)C(C)C1` (stereo unspecified) + CCn1c(-c2cc(N3CCN(C)CC3)cnc2C(C)OC)c2c3cc(ccc31)-c1csc(n1)CC(NC(=O)C1CC1C)C(=O)N1CCCC(N1)C(=O)OCC(C)(C)C2 has an IC50 (second compound 0.000949 µM) greater than 1000 nM, an IC50 (second compound 0.003 µM) greater than 1000 nM and an IC50 (second compound 0.00949 µM) greater than 1000 nM. The IC50 (second compound 0.03 µM) was greater than 1000 nM, the IC50 (second compound 0.0949 µM) was greater than 1000 nM and the IC50 (second compound 0.3 µM) was greater than 1000 nM. It also gave a viability, T/C (second compound 0.000949 µM, first compound 0.00316 µM) of 80.8%, a viability, T/C (second compound 0.000949 µM, first compound 0.01 µM) of 71.5% and a viability, T/C [1] of 78.4%. The viability, T/C [2] was 69.2%, the viability, T/C [3] was 69.5% and the viability, T/C [4] was 68%. The viability, T/C (second compound 0.003 µM, first compound 0.00316 µM) was 66.2%, the viability, T/C (second compound 0.003 µM, first compound 0.01 µM) was 66.7% and the viability, T/C [5] was 66.4%. For the same compound, the viability, T/C [6] was 60.6%, the viability, T/C [7] was 62.7% and the viability, T/C [8] was 67%. The viability, T/C (second compound 0.00949 µM, first compound 0.00316 µM) was 69.7%, the viability, T/C (second compound 0.00949 µM, first compound 0.01 µM) was 62% and the viability, T/C [9] was 70.1%. It also gave a viability, T/C [10] of 76.1%, a viability, T/C [11] of 63.6% and a viability, T/C [12] of 58.2%. It also gave a viability, T/C (second compound 0.03 µM, first compound 0.00316 µM) of 93.4%, a viability, T/C (second compound 0.03 µM, first compound 0.01 µM) of 84.5% and a viability, T/C [13] of 92.3%. For the same compound, the viability, T/C [14] was 81.2%, the viability, T/C [15] was 81.2% and the viability, T/C [16] was 97.2%. The viability, T/C (second compound 0.0949 µM, first compound 0.00316 µM) was 116%, the viability, T/C (second compound 0.0949 µM, first compound 0.01 µM) was 95.8% and the viability, T/C [17] was 101%. The viability, T/C [18] was 102%, the viability, T/C [19] was 97.6% and the viability, T/C [20] was 98%. The viability, T/C (second compound 0.3 µM, first compound 0.00316 µM) was 96.8%, the viability, T/C (second compound 0.3 µM, first compound 0.01 µM) was 93.4% and the viability, T/C [21] was 90.7%. For the same compound, the viability, T/C [22] was 88.6%, the viability, T/C [23] was 84.3% and the viability, T/C [24] was 91.1%.

`NC1c2ccccc2OC12CCN(c1cnc3c(N4CCCc5ncccc54)n[nH]c3n1)CC2` (stereo unspecified) + CCn1c(-c2cc(N3CCN(C)CC3)cnc2C(C)OC)c2c3cc(ccc31)-c1csc(n1)CC(NC(=O)C1CC1C)C(=O)N1CCCC(N1)C(=O)OCC(C)(C)C2 was tested, and the IC50 (second compound 0.000949 µM) was greater than 10000 nM, the IC50 (second compound 0.003 µM) was 7630 nM and the IC50 (second compound 0.00949 µM) was 4860 nM. The IC50 (second compound 0.03 µM) was 3490 nM, the IC50 (second compound 0.0949 µM) was 1330 nM and the IC50 (second compound 0.3 µM) was 937 nM. It also gave a viability, T/C [1] of 64.9%, a viability, T/C [2] of 57.4% and a viability, T/C [3] of 58%. It also gave a viability, T/C [4] of 83.2%, a viability, T/C [25] of 61.3% and a viability, T/C [26] of 46.9%. For the same compound, the viability, T/C [5] was 55.2%, the viability, T/C [6] was 72.1% and the viability, T/C [7] was 84.6%. It also gave a viability, T/C [8] of 82.2%, a viability, T/C [27] of 62.9% and a viability, T/C [28] of 46%. It also gave a viability, T/C [9] of 84.1%, a viability, T/C [10] of 80% and a viability, T/C [11] of 74.1%. It also gave a viability, T/C [12] of 64.9%, a viability, T/C [29] of 59.5% and a viability, T/C [30] of 38.6%. It also gave a viability, T/C [13] of 102%, a viability, T/C [14] of 97.1% and a viability, T/C [15] of 72.4%. The viability, T/C [16] was 64%, the viability, T/C [31] was 56.9% and the viability, T/C [32] was 34.2%. The viability, T/C [17] was 91.9%, the viability, T/C [18] was 77.6% and the viability, T/C [19] was 64.9%. For the same compound, the viability, T/C [20] was 52.7%, the viability, T/C [33] was 41.9% and the viability, T/C [34] was 33%. For the same compound, the viability, T/C [21] was 77.4%, the viability, T/C [22] was 67.7% and the viability, T/C [23] was 60%. It also gave a viability, T/C [24] of 49.3%, a viability, T/C [35] of 39.1% and a viability, T/C [36] of 26%.

In the case of `CC1(O)CCCC1n1c(=O)c(C(F)F)cc2cnc(NC3CCN(S(C)(=O)=O)CC3)nc21` (stereo unspecified) + CCn1c(-c2cc(N3CCN(C)CC3)cnc2C(C)OC)c2c3cc(ccc31)-c1csc(n1)CC(NC(=O)C1CC1C)C(=O)N1CCCC(N1)C(=O)OCC(C)(C)C2, the IC50 (second compound 0.000949 µM) is reported as 4010 nM, the IC50 (second compound 0.003 µM) is reported as 1990 nM and the IC50 (second compound 0.00949 µM) is reported as 1840 nM. For the same compound, the IC50 (second compound 0.03 µM) was 889 nM, the IC50 (second compound 0.0949 µM) was 545 nM and the IC50 (second compound 0.3 µM) was 382 nM. For the same compound, the viability, T/C [1] was 95.9%, the viability, T/C [2] was 78% and the viability, T/C [3] was 80.6%. It also gave a viability, T/C [4] of 75.6%, a viability, T/C [25] of 64.5% and a viability, T/C [26] of 3.86%. The viability, T/C [5] was 68.9%, the viability, T/C [6] was 74% and the viability, T/C [7] was 64.5%. For the same compound, the viability, T/C [8] was 56.2%, the viability, T/C [27] was 46.3% and the viability, T/C [28] was 3.15%. The viability, T/C [9] was 69.5%, the viability, T/C [10] was 75.4% and the viability, T/C [11] was 46.4%. For the same compound, the viability, T/C [12] was 56.5%, the viability, T/C [29] was 48.5% and the viability, T/C [30] was 2.9%. The viability, T/C [13] was 98.8%, the viability, T/C [14] was 82% and the viability, T/C [15] was 47.6%. For the same compound, the viability, T/C [16] was 58.9%, the viability, T/C [31] was 46% and the viability, T/C [32] was 2.97%. The viability, T/C [17] was 92%, the viability, T/C [18] was 62.1% and the viability, T/C [19] was 45.7%. It also gave a viability, T/C [20] of 50.4%, a viability, T/C [33] of 41.6% and a viability, T/C [34] of 2.68%. The viability, T/C [21] was 76.7%, the viability, T/C [22] was 58% and the viability, T/C [23] was 41.7%. It also gave a viability, T/C [24] of 49.6%, a viability, T/C [35] of 43.6% and a viability, T/C [36] of 2.64%.
